Measured values published in article PMC10258805, “Nonpeptidic Oxazole-Based Prolyl Oligopeptidase Ligands with Disease-Modifying Effects on α-Synuclein Mouse Models of Parkinson’s Disease” (Journal of Medicinal Chemistry, 2023).
Like-named read-outs stand apart in the source and are kept apart here. Where a SMILES comes first, the peptide text is derived from it. The star is where a group is joined. Cbz = O=C(OCc1ccccc1)*

Experiments:
[1] = test system: αSyn dimerization in Neuro2A (N2A) cells; test: αSyn-dimerization assay (split Gaussia luciferase PCA); conditions: for effect on αSyn dimerization (in words): 10 μM, N2A cells; for activity at 10 µM: Mus musculus, N2a
[2] = test system: HEK-293 cells stably expressing GFP-LC3B; test: Autophagic flux (GFP-LC3B reporter cells)
[3] = test system: ROS production in SH-SY5Y cells; test: ROS detection assay under oxidative stress; conditions: Homo sapiens, 3 h
recombinant porcine PREP = target: T1, recombinant porcine PREP (Sus scrofa, UniProt P23687); test: PREP activity assay (inhibition of proteolytic activity); format: biochemical
T1 construct: made in house

[4] = Homo sapiens, HEK293, 24 h, read-out: Autophagy at 10 uM (%)
[5] = Homo sapiens, HEK293, 24 h, read-out: autophagy at 10 μM (%)
[6] = read-out: aSyn dimerization at 10 uM (%)
[7] = read-out: αSyn dimer. at 10 μM (%)
[8] = Suc-Gly-Pro-AMC as substrate, 95% CI in brackets, read-out: IC50 (nM) (95% CI)
[9] = read-out: luminescence signal compared to the DMSO control (αSyn dimerization)
[10] = Homo sapiens, HEK293, 24 h, read-out: GFP signal of the DMSO control (autophagic flux)
[11] = supplementary CSV, read-out: IC50
[12] = read-out: ROS production, % of the control

T1 sequence (P23687 whole entry): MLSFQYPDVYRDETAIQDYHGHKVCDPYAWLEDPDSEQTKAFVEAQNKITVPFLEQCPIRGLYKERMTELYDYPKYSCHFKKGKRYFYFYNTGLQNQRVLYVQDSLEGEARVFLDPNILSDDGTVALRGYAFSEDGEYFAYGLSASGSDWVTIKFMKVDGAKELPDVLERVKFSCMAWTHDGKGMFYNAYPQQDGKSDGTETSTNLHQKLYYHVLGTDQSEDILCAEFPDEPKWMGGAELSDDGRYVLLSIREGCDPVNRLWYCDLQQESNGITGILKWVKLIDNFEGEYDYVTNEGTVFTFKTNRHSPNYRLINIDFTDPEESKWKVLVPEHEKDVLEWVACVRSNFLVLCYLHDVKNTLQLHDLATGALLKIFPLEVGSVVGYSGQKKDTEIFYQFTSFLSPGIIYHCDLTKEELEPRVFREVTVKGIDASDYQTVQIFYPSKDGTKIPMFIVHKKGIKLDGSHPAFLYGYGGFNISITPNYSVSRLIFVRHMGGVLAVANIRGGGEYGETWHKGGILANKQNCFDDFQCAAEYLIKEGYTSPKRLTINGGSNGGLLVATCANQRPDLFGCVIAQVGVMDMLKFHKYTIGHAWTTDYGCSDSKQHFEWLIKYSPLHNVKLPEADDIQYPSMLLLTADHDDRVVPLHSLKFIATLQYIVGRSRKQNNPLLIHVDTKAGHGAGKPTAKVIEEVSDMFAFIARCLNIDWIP

| Structure (SMILES) | effect on αSyn dimerization (in words) [1] | GFP signal compared to the DMSO control (in words) ([2]; 20 nM, autophagy inhibitor control) | activity at 10 µM ([3]; read-out: ROS at 10 uM (%)) [%] | activity at 10 µM ([3]; read-out: ROS at 10 μM (%)) [%] | activity at 10 µM [2, 4] [%] | activity at 10 µM [2, 5] [%] | activity at 10 µM [1, 6] [%] | activity at 10 µM [1, 7] [%] | IC50 (recombinant porcine PREP; [8]) [nM] | activity at 10 µM [1, 9] [%] | inhibitory activity (in words) (recombinant porcine PREP) | activity at 10 µM [2, 10] [%] | IC50 (recombinant porcine PREP; [11]) [nM] | activity at 10 µM [3, 12] [%] | IC50 (recombinant porcine PREP; read-out: IC50 value) [nM] | activity at 0.5 µM [2, 10] [%] |
| --- | --- | --- | --- | --- | --- | --- | --- | --- | --- | --- | --- | --- | --- | --- | --- | --- |
| CC(C)C[C@@H](C=O)NC(=O)[C@H](CC(C)C)NC(=O)[C@H](CC(C)C)NC(=O)OCc1ccccc1 [MG-132, reference compound] (Cbz-Leu-Leu-Leu-aldehyde) | significantly increased αSyn dimerization |  |  |  |  |  |  |  |  |  |  |  |  |  |  |  |
| CO/C1=C\C(C)=C\[C@@H](C)[C@@H](O)[C@@H](C)C/C(C)=C/C=C/[C@H](OC)[C@@H]([C@@H](C)[C@@H](O)[C@H](C)[C@@]2(O)C[C@@H](O)[C@H](C)[C@@H](C(C)C)O2)OC1=O [bafilomycin A1, Bafilomycin A1, reference compound] |  | significant effect |  |  |  |  |  |  |  |  |  |  |  |  |  |  |
| C[C@H](NC(=O)CCCc1ccccc1)C(=O)N1CCC[C@H]1C#N [compound 2, reference compound] |  |  | 92 | 92 ± 7 | 86 | 86 ± 6 | 105 | 105 ± 14 | 3.3 |  |  |  |  |  |  |  |
| Cc1nc(CCCc2ccccc2)oc1N1CCC[C@@H]1C#N [compound 3, (R)-1-(4-Methyl-2-(3-phenylpropyl)oxazol-5-yl)pyrrolidine-2-carbonitrile] |  |  | 88 | 88 ± 5 |  |  | 94 | 94 ± 8 |  |  |  |  |  |  |  |  |
| Cc1nc(CCCc2ccccc2)oc1N1CCCC[C@H]1C#N [compound 4, (S)-1-(4-Methyl-2-(3-phenylpropyl)oxazol-5-yl)piperidine-2-carbonitrile] |  |  |  |  | 97 | 97 ± 2 | 86 | 86 ± 19 | > 1e+06 | 80 to 85 | inactive |  |  |  |  |  |
| Cc1nc(CCCc2ccccc2)oc1N(CC#N)C(=O)C(F)(F)F [compound 5, N-(Cyanomethyl)-2,2,2-trifluoro-N-(4-methyl-2-(3-phenylpropyl)oxazol-5-yl)acetamide] |  |  |  |  | 77 | 77 ± 17 | 112 | 112 ± 6 |  |  | very low inhibitory activities | ≤ 88 | 108000 |  |  |  |
| Cc1nc(CCCc2ccccc2)oc1N(C)CC#N [compound 6, 2-(Methyl(4-methyl-2-(3-phenylpropyl)oxazol-5-yl)amino)acetonitrile] |  |  | 94 | 94 ± 7 | 96 | 96 ± 3 | 109 | 109 ± 6 |  |  | very low inhibitory activities |  | 12400 |  |  |  |
| CC(C)c1nc(CCCc2ccccc2)oc1N1CCC[C@H]1C#N [compound 7, 4-Phenylbutanoyl-(4-isopropyl-2-oxazol-5-yl)-2(S)-cyanopyrrolidine] |  |  | 81 | 81 ± 5 | 82 | 82 ± 8 | 82 | 82 ± 13 | 156 | 80 to 85 |  | ≤ 88 |  | < 88 | 156 to 445 |  |
| CC(C)Cc1nc(CCCc2ccccc2)oc1N1CCC[C@H]1C#N [compound 8, 4-Phenylbutanoyl-(4-isobutyl-2-oxazol-5-yl)-2(S)-cyanopyrrolidine] |  |  | 83 | 83 ± 7 | 81 | 81 ± 11 | 80 | 80 ± 6 | 4580 | 80 to 85 |  | ≤ 88 |  | < 88 |  |  |
| CC(C)(C)c1nc(CCCc2ccccc2)oc1N1CCC[C@H]1C#N [compound 9, (S)-1-(4-(tert-Butyl)-2-(3-phenylpropyl)oxazol-5-yl)pyrrolidine-2-carbonitrile] |  |  | 86 | 86 ± 10 | 103 | 103 ± 3 | 92 | 92 ± 6 |  |  | further reduced inhibitory activities |  | 415000 | < 88 |  |  |
| N#C[C@@H]1CCCN1c1oc(CCCc2ccccc2)nc1-c1ccccc1 [compound 10, 4-Phenylbutanoyl-(4-phenyl-2-oxazol-5-yl)-2(S)-cyanopyrrolidine] |  |  | 77 | 77 ± 8 | 104 | 104 ± 6 | 97 | 97 ± 10 |  |  | further reduced inhibitory activities |  | 17400 | 75 |  |  |
| CSCCc1nc(CCCc2ccccc2)oc1N1CCC[C@H]1C#N [compound 11, (S)-1-(4-(2-(Methylthio)ethyl)-2-(3-phenylpropyl)oxazol-5-yl)pyrrolidine-2-carbonitrile] | comparable effect as KYP-2047 |  | 101 | 101 ± 8 | 92 | 92 ± 5 | 90 | 90 ± 8 | 445 |  |  |  |  |  | 156 to 445 |  |
| N#C[C@@H]1CCCN1c1oc(CCCc2ccccc2)nc1C(=O)C(F)(F)F [compound 12, (S)-1-(2-(3-Phenylpropyl)-4-(2,2,2-trifluoroacetyl)oxazol-5-yl)pyrrolidine-2-carbonitrile] |  |  | 81 | 81 ± 10 | 98 | 98 ± 2 | 104 | 104 ± 5 |  |  | strongly reduced inhibitory activity |  | 209000 | < 88 |  |  |
| Cc1nc(-c2ccccc2)oc1N1CCC[C@H]1C#N [compound 13, (S)-1-(4-Methyl-2-phenyloxazol-5-yl)pyrrolidine-2-carbonitrile] |  |  | 86 | 86 ± 13 | 92 | 92 ± 1 | 80 | 80 ± 9 | 7940 | 80 to 85 |  |  |  | < 88 |  |  |
| Cc1nc(Cc2ccccc2)oc1N1CCC[C@H]1C#N [compound 14, (S)-1-(2-Benzyl-4-methyloxazol-5-yl)pyrrolidine-2-carbonitrile] |  |  | 84 | 84 ± 4 | 97 | 97 ± 6 | 99 | 99 ± 8 | 288 |  |  |  |  | < 88 |  |  |
| Cc1nc(CCc2ccccc2)oc1N1CCC[C@H]1C#N [compound 15, (S)-1-(4-Methyl-2-phenethyloxazol-5-yl)pyrrolidine-2-carbonitrile] |  |  | 89 | 89 ± 1 | 88 | 88 ± 4 | 75 | 75 ± 4 | 692 | ≤ 75 |  | ≤ 88 |  |  |  |  |
| Cc1nc(CCCCc2ccccc2)oc1N1CCC[C@H]1C#N [compound 16, (S)-1-(4-Methyl-2-(4-phenylbutyl)oxazol-5-yl)pyrrolidine-2-carbonitrile] |  |  |  |  | 89 | 89 ± 6 | 108 | 108 ± 2 |  |  |  |  |  |  |  |  |
| N#Cc1nc(CCCc2ccccc2)oc1N [compound 26, 5-Amino-2-(3-phenylpropyl)oxazole-4-carbonitrile] |  |  |  |  | 96 | 96 ± 4 | 73 | 73 ± 15 | > 1e+06 | ≤ 75 |  |  |  |  |  |  |
| N#Cc1nc(CCCc2ccccc2)oc1N1CCCC1 [compound 27, 2-(3-Phenylpropyl)-5-(pyrrolidin-1-yl)oxazole-4-carbonitrile] | comparable effect as KYP-2047 |  |  |  | 96 | 96 ± 5 | 88 | 88 ± 6 |  |  | very weak inhibitors |  | 75400 |  |  |  |
| Cc1oc(CCCc2ccccc2)nc1C(=O)N1CCCC1 [compound 31, (5-Methyl-2-(3-phenylpropyl)oxazol-4-yl)(pyrrolidin-1-yl)methanone] |  |  |  |  | 97 | 97 ± 4 | 117 | 117 ± 11 |  |  | very low inhibitory activities |  | 138000 |  |  |  |
| Cc1oc(CCCc2ccccc2)nc1C(=O)N1CCC[C@H]1C(N)=O [compound 32, (S)-1-(5-Methyl-2-(3-phenylpropyl)oxazole-4-carbonyl)pyrrolidine-2-carboxamide] |  |  |  |  | 98 | 98 ± 3 |  |  | > 1e+06 |  | very low inhibitory activities |  |  |  |  |  |
| CC(=O)N[C@@H](CSC(=O)[C@]1([C@@H](O)C(C)C)NC(=O)[C@H](C)[C@@H]1O)C(=O)O [lactacystin, reference compound] | significantly increased αSyn dimerization |  |  |  |  |  |  |  |  |  |  |  |  |  |  |  |
| CO[C@H]1C[C@@H]2CC[C@@H](C)[C@@](O)(O2)C(=O)C(=O)N2CCCC[C@H]2C(=O)O[C@H]([C@H](C)C[C@@H]2CC[C@@H](O)[C@H](OC)C2)CC(=O)[C@H](C)/C=C(\C)[C@@H](O)[C@@H](OC)C(=O)[C@H](C)C[C@H](C)/C=C/C=C/C=C/1C [rapamycin, reference compound] |  |  |  |  |  |  |  |  |  |  |  |  |  |  |  | 65 |
